{
  "source": "patent US11479559B2",
  "about": "“Urea-substituted aromatic ring-linked dioxinoquinoline compounds, preparation method and uses thereof” (BEIJING SCITECH-MQ PHARMACEUTICALS LIMITED, priority 2018, dated 2022)",
  "key": {"RET tyrosine kinase": {"target": "RET tyrosine kinase (Homo sapiens (Human), UniProt P07949)", "sequence (P07949 29-1114)": "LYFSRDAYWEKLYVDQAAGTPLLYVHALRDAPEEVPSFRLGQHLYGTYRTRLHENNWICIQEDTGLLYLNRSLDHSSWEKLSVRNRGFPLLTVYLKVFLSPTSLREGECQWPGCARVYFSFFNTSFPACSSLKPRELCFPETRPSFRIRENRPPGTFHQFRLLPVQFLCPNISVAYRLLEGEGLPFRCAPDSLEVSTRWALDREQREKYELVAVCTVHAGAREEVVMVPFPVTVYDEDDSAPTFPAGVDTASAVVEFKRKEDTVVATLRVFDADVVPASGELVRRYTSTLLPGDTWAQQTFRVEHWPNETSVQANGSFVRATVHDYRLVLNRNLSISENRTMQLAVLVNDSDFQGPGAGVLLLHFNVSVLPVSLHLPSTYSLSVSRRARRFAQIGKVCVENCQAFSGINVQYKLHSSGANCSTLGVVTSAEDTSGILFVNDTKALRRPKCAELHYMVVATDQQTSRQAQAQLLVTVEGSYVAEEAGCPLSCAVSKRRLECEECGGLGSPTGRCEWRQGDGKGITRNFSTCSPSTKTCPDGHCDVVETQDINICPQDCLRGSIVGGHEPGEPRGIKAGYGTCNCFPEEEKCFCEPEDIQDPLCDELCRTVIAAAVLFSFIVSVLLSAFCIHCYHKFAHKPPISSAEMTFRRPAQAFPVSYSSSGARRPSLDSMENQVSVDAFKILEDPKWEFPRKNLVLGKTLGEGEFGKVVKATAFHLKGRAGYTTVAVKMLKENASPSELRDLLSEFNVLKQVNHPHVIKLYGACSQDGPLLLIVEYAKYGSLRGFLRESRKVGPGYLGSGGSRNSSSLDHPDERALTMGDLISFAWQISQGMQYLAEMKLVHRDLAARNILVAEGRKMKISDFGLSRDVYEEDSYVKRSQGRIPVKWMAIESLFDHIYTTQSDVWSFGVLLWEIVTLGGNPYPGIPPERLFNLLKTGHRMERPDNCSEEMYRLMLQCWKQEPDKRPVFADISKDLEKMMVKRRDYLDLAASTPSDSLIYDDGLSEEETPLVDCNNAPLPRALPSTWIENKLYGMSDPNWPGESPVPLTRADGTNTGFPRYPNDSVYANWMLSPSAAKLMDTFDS", "assay": "Assay of small molecular compounds for inhibiting the activity of RET kinase (LANCE TR-FRET)", "experimental": "(§1) The assay is based on the LANCE TR-FRET technology of Perkin Elmer Inc., and the assay method is as follows:\n(§2) 2.5 μL of the gradient-diluted compounds were taken with a transfer pipette to a 384-well plate.\nAddition of enzyme: 5 μL of 2× RET kinase solution (concentration was 0.8 nM) was taken with a transfer pipette to the corresponding reaction well of the 384-well plate, mixed well and pre-reacted at room temperature for 30 minutes.\n2.5 μL 4× Ultra ULight™-JAK-1 (Tyr1023) Peptide (concentration was 200 nM)/ATP (concentration was 40 μM) mixture was taken with a transfer pipette to the corresponding reaction well of the 384-well plate.\n(§3) The final concentration of DMSO in the reaction system was 4%.\n(§4) The mixture was mixed well and then centrifuged and reacted at room temperature in dark for 60 min.\n(§5) The 384-well plate was placed into the Envision plate reader and the signal was detected using the appropriate program."}, "VEGFR2 tyrosine kinase": {"target": "VEGFR2 tyrosine kinase (Homo sapiens (Human), UniProt P35968)", "sequence (P35968 20-1356)": "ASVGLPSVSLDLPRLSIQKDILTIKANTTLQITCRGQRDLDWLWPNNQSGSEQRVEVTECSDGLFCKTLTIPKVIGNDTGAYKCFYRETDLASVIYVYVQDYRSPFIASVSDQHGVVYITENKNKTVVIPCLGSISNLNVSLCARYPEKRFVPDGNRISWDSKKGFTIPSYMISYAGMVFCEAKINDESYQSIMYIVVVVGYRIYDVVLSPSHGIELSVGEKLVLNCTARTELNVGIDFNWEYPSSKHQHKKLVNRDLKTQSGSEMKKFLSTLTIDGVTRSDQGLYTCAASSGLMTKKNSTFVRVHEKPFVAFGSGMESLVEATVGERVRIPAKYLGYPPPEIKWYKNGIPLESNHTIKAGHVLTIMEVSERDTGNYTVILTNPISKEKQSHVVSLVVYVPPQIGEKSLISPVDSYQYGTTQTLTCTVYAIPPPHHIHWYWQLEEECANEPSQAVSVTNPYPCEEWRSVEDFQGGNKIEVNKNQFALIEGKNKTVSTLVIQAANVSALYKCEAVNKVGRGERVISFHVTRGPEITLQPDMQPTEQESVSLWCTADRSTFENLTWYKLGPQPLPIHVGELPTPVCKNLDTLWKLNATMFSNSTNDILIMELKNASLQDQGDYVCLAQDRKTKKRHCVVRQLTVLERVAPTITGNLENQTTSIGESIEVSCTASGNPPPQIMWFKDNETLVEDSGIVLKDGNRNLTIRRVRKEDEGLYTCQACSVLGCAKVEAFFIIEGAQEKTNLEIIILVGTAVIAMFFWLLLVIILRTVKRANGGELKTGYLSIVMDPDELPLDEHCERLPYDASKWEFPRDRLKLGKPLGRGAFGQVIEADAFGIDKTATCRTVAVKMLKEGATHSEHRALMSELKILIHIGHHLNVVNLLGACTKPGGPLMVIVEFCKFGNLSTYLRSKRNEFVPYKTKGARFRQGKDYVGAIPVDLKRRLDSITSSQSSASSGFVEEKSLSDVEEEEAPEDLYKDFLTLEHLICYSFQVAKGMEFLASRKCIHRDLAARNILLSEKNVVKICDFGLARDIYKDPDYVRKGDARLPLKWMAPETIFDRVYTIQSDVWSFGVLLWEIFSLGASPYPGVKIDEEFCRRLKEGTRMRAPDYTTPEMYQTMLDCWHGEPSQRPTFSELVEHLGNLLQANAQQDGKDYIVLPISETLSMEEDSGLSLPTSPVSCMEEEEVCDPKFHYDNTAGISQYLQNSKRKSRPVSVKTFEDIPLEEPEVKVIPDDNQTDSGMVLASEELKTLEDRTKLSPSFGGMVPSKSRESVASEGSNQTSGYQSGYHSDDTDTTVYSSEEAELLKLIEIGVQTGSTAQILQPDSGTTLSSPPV", "assay": "Assay of small molecular compounds for inhibiting the activity of VEGFR-2 kinase (LANCE TR-FRET)", "experimental": "as §1, §2\nAddition of enzyme: 5 μL of 2× VEGFR2 kinase solution (concentration was 0.5 nM) was taken with a transfer pipette to the corresponding reaction well of the 384-well plate, mixed well and pre-reacted at room temperature for 30 minutes.\n2.5 μL 4× Ultra ULight™-JAK-1 (Tyr1023) Peptide (concentration was 200 nM)/ATP (concentration was 40 μMM) mixture was taken with a transfer pipette to the corresponding reaction well of the 384-well plate.\nNegative control: 2.5 μL/well 4× substrate/ATP mixture and 7.5 μL 1× Kinase Assay Buffer were added to the wells of the 384-well plate.\nas §3, §4, §5"}},
  "note": "Where two headings read alike, the source gives them in different places.",
  "data": [
    {"smiles": "O=C(Nc1ccc(Oc2ccnc3cc(OCCCN4CCCC4)c4c(c23)OCCO4)cc1)Nc1ccc(Cl)c(C(F)(F)F)c1", "note": "[Example 18, 1-(4-chloro-3-(trifluoromethyl)phenyl)-3-(4-((5-(3-(pyrrolidin-1-yl)propoxy)-2,3-dihydro-[1,4]dioxino[2,3-f]quinolin-10-yl)oxy)phenyl)urea]", "values": [
      {"measurement": "IC50", "setting": "RET tyrosine kinase; read-out: RET IC50", "result": "< 50", "unit": "nM"},
      {"measurement": "IC50", "setting": "VEGFR2 tyrosine kinase; read-out: VEGFR-2 IC50", "result": "< 50", "unit": "nM"}
    ]},
    {"smiles": "CCNC(=O)Nc1ccc(Oc2ccnc3cc(OC)c4c(c23)OCCO4)cc1Cl", "note": "[Example 80, 1-(2-chloro-4-((5-methoxy-2,3-dihydro-[1,4]dioxino[2,3-f]quinolin-10-yl)oxy)phenyl)-3-ethylurea]", "values": [
      {"measurement": "IC50", "setting": "RET tyrosine kinase; read-out: RET IC50", "result": "< 50", "unit": "nM"},
      {"measurement": "IC50", "setting": "VEGFR2 tyrosine kinase; read-out: VEGFR-2 IC50", "result": "< 50", "unit": "nM"}
    ]},
    {"smiles": "CN(C)CCCOc1cc2nccc(Oc3ccc(NC(=O)Nc4ccc(Cl)c(C(F)(F)F)c4)cc3)c2c2c1OCCO2", "note": "[Example 17, 1-(4-chloro-3-(trifluoromethyl)phenyl)-3-(4-((5-(3-(dimethylamino)propoxy)-2,3-dihydro-[1, 4]dioxino[2,3-f]quinolin-10-yl)oxy)phenyl)urea]", "values": [
      {"measurement": "IC50", "setting": "RET tyrosine kinase; read-out: RET IC50", "result": "< 50", "unit": "nM"},
      {"measurement": "IC50", "setting": "VEGFR2 tyrosine kinase; read-out: VEGFR-2 IC50", "result": "< 50", "unit": "nM"}
    ]},
    {"smiles": "CC1(C)CCN(CCCOc2cc3nccc(Oc4ccc(NC(=O)NC5CC5)c(Cl)c4)c3c3c2OCCO3)CC1", "note": "[Example 59, 1-(2-chloro-4-((5-(3-(4,4-dimethylpiperidin-1-yl)propoxy)-2,3-dihydro-[1,4]dioxino[2,3-f]quinolin-10-yl)oxy)phenyl)-3-cyclopropylurea]", "values": [
      {"measurement": "IC50", "setting": "RET tyrosine kinase; read-out: RET IC50", "result": "< 50", "unit": "nM"},
      {"measurement": "IC50", "setting": "VEGFR2 tyrosine kinase; read-out: VEGFR-2 IC50", "result": "< 50", "unit": "nM"}
    ]},
    {"smiles": "CCCNC(=O)Nc1ccc(Oc2ccnc3cc(OCCCN4CCOCC4)c4c(c23)OCCO4)cc1Cl", "note": "[Example 87, 1-(2-chloro-4-((5-(3-morpholinopropoxy)-2,3-dihydro-[1,4]dioxino[2,3-f]quinolin-10-yl)oxy)phenyl)-3-prop ylurea]", "values": [
      {"measurement": "IC50", "setting": "RET tyrosine kinase", "result": "< 50", "unit": "nM"},
      {"measurement": "IC50", "setting": "VEGFR2 tyrosine kinase", "result": "< 50", "unit": "nM"}
    ]},
    {"smiles": "CCOc1cc2nccc(Oc3ccc(NC(=O)NC4CC4)c(F)c3)c2c2c1OCCO2", "note": "[Example 90, 1-cyclopropyl-3-(4-((5-ethoxy-2,3-dihydro-[1,4]dioxino[2,3-f]quinolin-10-yl)oxy)-2-fluorophenyl)urea]", "values": [
      {"measurement": "IC50", "setting": "RET tyrosine kinase; read-out: RET IC50", "result": "< 50", "unit": "nM"},
      {"measurement": "IC50", "setting": "VEGFR2 tyrosine kinase; read-out: VEGFR-2 IC50", "result": "< 50", "unit": "nM"}
    ]},
    {"smiles": "O=C(Nc1ccc(Oc2ccnc3cc(OCC4CC4)c4c(c23)OCCO4)cc1Cl)NC1CC1", "note": "[Example 46, 1-(2-chloro-4-((5-(cyclopropylmethoxy)-2,3-dihydro-[1,4]dioxino[2,3-f]quinolin-10-yl)oxy)phenyl)-3-cyclopropylurea]", "values": [
      {"measurement": "IC50", "setting": "RET tyrosine kinase; read-out: RET IC50", "result": "< 50", "unit": "nM"},
      {"measurement": "IC50", "setting": "VEGFR2 tyrosine kinase; read-out: VEGFR-2 IC50", "result": "< 50", "unit": "nM"}
    ]},
    {"smiles": "COCCOc1cc2nccc(Oc3ccc(NC(=O)NC4CCC4)c(Cl)c3)c2c2c1OCCO2", "note": "[Example 70, 1-(2-chloro-4-((5-(2-methoxyethoxy)-2,3-dihydro-[1,4]dioxino[2,3-f]quinolin-10-yl)oxy)phenyl)-3-cyclobutylurea]", "values": [
      {"measurement": "IC50", "setting": "RET tyrosine kinase; read-out: RET IC50", "result": "< 50", "unit": "nM"},
      {"measurement": "IC50", "setting": "VEGFR2 tyrosine kinase; read-out: VEGFR-2 IC50", "result": "< 50", "unit": "nM"}
    ]},
    {"smiles": "COc1cc2nccc(Oc3ccc(NC(=O)NC4CC4)c(F)c3)c2c2c1OCCO2", "note": "[Example 84, 1-cyclopropyl-3-(2-fluoro-4-((5-methoxy-2,3-dihydro-[1,4]dioxino[2,3-f]quinolin-10-yl)oxy)phenyl)urea]", "values": [
      {"measurement": "IC50", "setting": "RET tyrosine kinase", "result": "< 50", "unit": "nM"},
      {"measurement": "IC50", "setting": "VEGFR2 tyrosine kinase", "result": "< 50", "unit": "nM"}
    ]},
    {"smiles": "COCCOc1cc2nccc(Oc3ccc(NC(=O)NC4CC4)c(Cl)c3)c2c2c1OCCO2", "note": "[Example 49, 1-(2-chloro-4-((5-(2-methoxyethoxy)-2,3-dihydro-[1,4]dioxino[2,3-f]quinolin-10-yl)oxy)phenyl)-3-cyclopropylurea]", "values": [
      {"measurement": "IC50", "setting": "RET tyrosine kinase; read-out: RET IC50", "result": "< 50", "unit": "nM"},
      {"measurement": "IC50", "setting": "VEGFR2 tyrosine kinase; read-out: VEGFR-2 IC50", "result": "< 50", "unit": "nM"}
    ]},
    {"smiles": "CC(C)NC(=O)Nc1ccc(Oc2ccnc3cc(OCCCN4CCOCC4)c4c(c23)OCCO4)cc1Cl", "note": "[Example 88, 1-(2-chloro-4-((5-(3-morpholinopropoxy)-2,3-dihydro-[1,4]dioxino[2,3-f]quinolin-10-yl)oxy)phenyl)-3-isopropylurea]", "values": [
      {"measurement": "IC50", "setting": "RET tyrosine kinase; read-out: RET IC50", "result": "< 50", "unit": "nM"},
      {"measurement": "IC50", "setting": "VEGFR2 tyrosine kinase; read-out: VEGFR-2 IC50", "result": "< 50", "unit": "nM"}
    ]},
    {"smiles": "COCCOc1cc2nccc(Oc3ccc(NC(=O)NC4CC4)c(F)c3)c2c2c1OCCO2", "note": "[Example 91, 1-cyclopropyl-3-(2-fluoro-4-((5-(2-methoxyethoxy)-2,3-dihydro-[1,4]dioxino[2,3-f]quinolin-10-yl)oxy)phenyl)urea]", "values": [
      {"measurement": "IC50", "setting": "RET tyrosine kinase; read-out: RET IC50", "result": "< 50", "unit": "nM"},
      {"measurement": "IC50", "setting": "VEGFR2 tyrosine kinase; read-out: VEGFR-2 IC50", "result": "< 50", "unit": "nM"}
    ]},
    {"smiles": "COCCCOc1cc2nccc(Oc3ccc(NC(=O)NC4CC4)c(Cl)c3)c2c2c1OCCO2", "note": "[Example 51, 1-(2-chloro-4-((5-(3-methoxypropoxy)-2,3-dihydro-[1,4]dioxino[2,3-f]quinolin-10-yl)oxy)phenyl)-3-cyclopropylurea]", "values": [
      {"measurement": "IC50", "setting": "RET tyrosine kinase; read-out: RET IC50", "result": "< 50", "unit": "nM"},
      {"measurement": "IC50", "setting": "VEGFR2 tyrosine kinase; read-out: VEGFR-2 IC50", "result": "< 50", "unit": "nM"}
    ]},
    {"smiles": "N#CCCCOc1cc2nccc(Oc3ccc(NC(=O)NC4CC4)c(Cl)c3)c2c2c1OCCO2", "note": "[Example 93, 1-(2-chloro-4-((5-(3-cyanopropoxy)-2,3-dihydro-[1,4]dioxino[2,3-f]quinolin-10-yl)oxy)phenyl)-3-cyclopropylurea]", "values": [
      {"measurement": "IC50", "setting": "RET tyrosine kinase; read-out: RET IC50", "result": "< 50", "unit": "nM"},
      {"measurement": "IC50", "setting": "VEGFR2 tyrosine kinase; read-out: VEGFR-2 IC50", "result": "< 50", "unit": "nM"}
    ]},
    {"smiles": "CN1CCN(CCCOc2cc3nccc(Oc4ccc(NC(=O)Nc5ccc(Cl)c(C(F)(F)F)c5)cc4)c3c3c2OCCO3)CC1", "note": "[Example 21, 1-(4-chloro-3-(trifluoromethyl)phenyl)-3-(4-((5-(3-(4-methylpiperazin-1-yl)propoxy)-2,3-dihydro-[1,4]dioxino[2,3-f]quinolin-10-yl)oxy)phenyl)urea]", "values": [
      {"measurement": "IC50", "setting": "RET tyrosine kinase; read-out: RET IC50", "result": "< 50", "unit": "nM"},
      {"measurement": "IC50", "setting": "VEGFR2 tyrosine kinase; read-out: VEGFR-2 IC50", "result": "< 50", "unit": "nM"}
    ]},
    {"smiles": "CN1CCN(CCCOc2cc3nccc(Oc4ccc(NC(=O)NC5CC5)c(Cl)c4)c3c3c2OCCO3)CC1", "note": "[Example 56, 1-(2-chloro-4-((5-(3-(4-methylpiperazin-1-yl)propoxy)-2,3-dihydro-[1,4]dioxino[2,3-f]quinolin-10-yl)oxy)phenyl)-3-cyclopropylurea]", "values": [
      {"measurement": "IC50", "setting": "RET tyrosine kinase; read-out: RET IC50", "result": "< 50", "unit": "nM"},
      {"measurement": "IC50", "setting": "VEGFR2 tyrosine kinase; read-out: VEGFR-2 IC50", "result": "< 50", "unit": "nM"}
    ]},
    {"smiles": "O=C(Nc1ccc(Oc2ccnc3cc(OCCCN4CCOCC4)c4c(c23)OCCO4)cc1)Nc1ccc(F)cc1F", "note": "[Example 78, 1-(2,4-difluorophenyl)-3-(4-((5-(3-morpholinopropoxy)-2,3-dihydro-[1,4]dioxino[2,3-f]quinolin-10-yl)oxy)phenyl)urea]", "values": [
      {"measurement": "IC50", "setting": "RET tyrosine kinase; read-out: RET IC50", "result": "< 50", "unit": "nM"},
      {"measurement": "IC50", "setting": "VEGFR2 tyrosine kinase; read-out: VEGFR-2 IC50", "result": "< 50", "unit": "nM"}
    ]},
    {"smiles": "CN(C)CCCOc1cc2nccc(Oc3ccc(NC(=O)NC4CC4)c(Cl)c3)c2c2c1OCCO2", "note": "[Example 52, 1-(2-chloro-4-((5-(3-(dimethylamino)propoxy)-2,3-dihydro-[1,4]dioxino[2,3-f]quinolin-10-yl)oxy)phenyl)-3-cyclopropylurea]", "values": [
      {"measurement": "IC50", "setting": "RET tyrosine kinase; read-out: RET IC50", "result": "< 50", "unit": "nM"},
      {"measurement": "IC50", "setting": "VEGFR2 tyrosine kinase; read-out: VEGFR-2 IC50", "result": "< 50", "unit": "nM"}
    ]},
    {"smiles": "O=C(Nc1ccc(Oc2ccnc3cc(OCCCN4CCCCC4)c4c(c23)OCCO4)cc1)Nc1ccc(Cl)c(C(F)(F)F)c1", "note": "[Example 19, 1-(4-chloro-3-(trifluoromethyl)phenyl)-3-(4-((5-(3-(piperidin-1-yl)propoxy)-2,3-dihydro-[1,4]dioxino[2,3-f]quinolin-10-yl)oxy)phenyl)urea]", "values": [
      {"measurement": "IC50", "setting": "VEGFR2 tyrosine kinase; read-out: VEGFR-2 IC50", "result": "< 50", "unit": "nM"}
    ]},
    {"smiles": "O=C(Nc1ccc(Oc2ccnc3cc(OC4CCOC4)c4c(c23)OCCO4)cc1)Nc1ccc(Cl)c(C(F)(F)F)c1", "note": "(stereo not drawn) [Example 32, 1-(4-chloro-3-(trifluoromethyl)phenyl)-3-(4-((5-((tetrahydrofuran-3-yl)oxy)-2,3-dihydro-[1,4]dioxino[2,3-f]quinolin-10-yl)oxy)phenyl)urea]", "values": [
      {"measurement": "IC50", "setting": "RET tyrosine kinase", "result": "50 to 500", "unit": "nM"}
    ]},
    {"smiles": "O=C(Nc1ccc(Oc2ccnc3cc(OCCCN4CCOCC4)c4c(c23)OCCO4)c(F)c1)Nc1ccc(Cl)c(C(F)(F)F)c1", "note": "[Example 41, 1-(4-chloro-3-(trifluoromethyl)phenyl)-3-(3-fluoro-4-((5-(3-morpholinopropoxy)-2,3-dihydro-[1,4]dioxino[2,3-f]quinolin-10-yl)oxy)phenyl)urea]", "values": [
      {"measurement": "IC50", "setting": "RET tyrosine kinase", "result": "50 to 500", "unit": "nM"}
    ]}
  ]
}
